Source: ChEMBL document CHEMBL2331144, “Synthesis and anticancer activity of analogues of phenstatin, with a phenothiazine A-ring, as a new class of microtubule-targeting agents” (Bioorg Med Chem Lett, 2013)

Key:
[1] = test system: LOX IMVI; experiment: Growth inhibition of human LOXIMVI cells at 10 uM after 48 hrs by sulforhodamine B assay; format: functional; conditions: read-out: GI
[2] = test system: MDA-MB-231; experiment: Growth inhibition of human MDA-MB-231 cells at 10 uM after 48 hrs by sulforhodamine B assay; format: functional; conditions: MDA-MB-231, 48 h, read-out: GI
[3] = test system: A498; experiment: Growth inhibition of human A498 cells at 10 uM after 48 hrs by sulforhodamine B assay; format: functional; conditions: A498, 48 h, read-out: GI
[4] = test system: COLO 205; experiment: Growth inhibition of human COLO205 cells at 10 uM after 48 hrs by sulforhodamine B assay; format: functional; conditions: COLO 205, 48 h, read-out: GI
[5] = test system: HOP-92; experiment: Growth inhibition of human HOP92 cells at 10 uM after 48 hrs by sulforhodamine B assay; format: functional; conditions: HOP-92, 48 h, read-out: GI
[6] = test system: HL-60(TB); experiment: Growth inhibition of human HL-60(TB) cells at 10 uM after 48 hrs by sulforhodamine B assay; format: functional; conditions: HL-60, 48 h, read-out: GI
[7] = test system: K562; experiment: Growth inhibition of human K562 cells at 10 uM after 48 hrs by sulforhodamine B assay; format: functional; conditions: K562, 48 h, read-out: GI
[8] = Growth inhibition of human NCI-ADR-RES cells at 10 uM after 48 hrs by sulforhodamine B assay; format: functional; conditions: read-out: GI
[9] = test system: KM12; experiment: Growth inhibition of human KM12 cells at 10 uM after 48 hrs by sulforhodamine B assay; format: functional; conditions: KM12, 48 h, read-out: GI
[10] = test system: MDA-MB-435; experiment: Growth inhibition of human MDA-MB-435 cells at 10 uM after 48 hrs by sulforhodamine B assay; format: functional; conditions: MDA-MB-435, 48 h, read-out: GI
[11] = test system: UACC-62; experiment: Growth inhibition of human UACC62 cells at 10 uM after 48 hrs by sulforhodamine B assay; format: functional; conditions: UACC-62, 48 h, read-out: GI
[12] = test system: HOP-62; experiment: Growth inhibition of human HOP62 cells at 10 uM after 48 hrs by sulforhodamine B assay; format: functional; conditions: HOP-62, 48 h, read-out: GI
[13] = test system: UO-31; experiment: Growth inhibition of human UO31 cells at 10 uM after 48 hrs by sulforhodamine B assay; format: functional; conditions: UO-31, 48 h, read-out: GI
[14] = test system: OVCAR-4; experiment: Growth inhibition of human OVCAR4 cells at 10 uM after 48 hrs by sulforhodamine B assay; format: functional; conditions: OVCAR-4, 48 h, read-out: GI
[15] = test system: MCF7; experiment: Growth inhibition of human MCF7 cells at 10 uM after 48 hrs by sulforhodamine B assay; format: functional; conditions: MCF7, 48 h, read-out: GI
[16] = test system: T47D; experiment: Growth inhibition of human T47D cells at 10 uM after 48 hrs by sulforhodamine B assay; format: functional; conditions: read-out: GI
[17] = test system: Malme-3M; experiment: Growth inhibition of human MALME-3M cells at 10 uM after 48 hrs by sulforhodamine B assay; format: functional; conditions: read-out: GI
[18] = test system: CCRF-CEM; experiment: Growth inhibition of human CCRF-CEM cells at 10 uM after 48 hrs by sulforhodamine B assay; format: functional; conditions: read-out: GI
[19] = test system: MDA-MB-468; experiment: Growth inhibition of human MDA-MB-468 cells at 10 uM after 48 hrs by sulforhodamine B assay; format: functional; conditions: MDA-MB-468, 48 h, read-out: GI
[20] = test system: HCT-116; experiment: Growth inhibition of human HCT116 cells at 10 uM after 48 hrs by sulforhodamine B assay; format: functional; conditions: HCT-116, 48 h, read-out: GI
[21] = test system: SK-MEL-5; experiment: Growth inhibition of human SK-MEL-5 cells at 10 uM after 48 hrs by sulforhodamine B assay; format: functional; conditions: SK-MEL-5, 48 h, read-out: GI
[22] = test system: SR; experiment: Growth inhibition of human SR cells at 10 uM after 48 hrs by sulforhodamine B assay; format: functional; conditions: read-out: GI
[23] = test system: HCT-15; experiment: Growth inhibition of human HCT15 cells at 10 uM after 48 hrs by sulforhodamine B assay; format: functional; conditions: HCT-15, 48 h, read-out: GI
[24] = test system: PC-3; experiment: Growth inhibition of human PC3 cells at 10 uM after 48 hrs by sulforhodamine B assay; format: functional; conditions: PC-3, 48 h, read-out: GI
[25] = test system: MOLT-4; experiment: Growth inhibition of human MOLT4 cells at 10 uM after 48 hrs by sulforhodamine B assay; format: functional; conditions: MOLT-4, 48 h, read-out: GI
[26] = test system: CAKI-1; experiment: Growth inhibition of human CAKI-1 cells at 10 uM after 48 hrs by sulforhodamine B assay; format: functional; conditions: CAKI-1, 48 h, read-out: GI
[27] = test system: SNB-75; experiment: Growth inhibition of human SNB75 cells at 10 uM after 48 hrs by sulforhodamine B assay; format: functional; conditions: SNB-75, 48 h, read-out: GI
[28] = test system: RPMI-8226; experiment: Growth inhibition of human RPMI8226 cells at 10 uM after 48 hrs by sulforhodamine B assay; format: functional; conditions: RPMI-8226, 48 h, read-out: GI
[29] = test system: SF-295; experiment: Growth inhibition of human SF295 cells at 10 uM after 48 hrs by sulforhodamine B assay; format: functional; conditions: SF-295, 48 h, read-out: GI
[30] = test system: 786-0; experiment: Growth inhibition of human 786-0 cells at 10 uM after 48 hrs by sulforhodamine B assay; format: functional; conditions: 786-0, 48 h, read-out: GI
[31] = test system: RXF 393; experiment: Growth inhibition of human RXF393 cells at 10 uM after 48 hrs by sulforhodamine B assay; format: functional; conditions: RXF 393, 48 h, read-out: GI
[32] = test system: NCI-H522; experiment: Growth inhibition of human NCI-H522 cells at 10 uM after 48 hrs by sulforhodamine B assay; format: functional; conditions: NCI-H522, 48 h, read-out: GI
[33] = species: Ovis aries; experiment: Inhibition of sheep brain tubulin polymerization at 100 uM using DAPI by fluorimetry

In the case of `CC(=O)c1cn(C(=O)N2c3ccccc3Sc3ccccc32)c2ccccc12`, the inhibition of growth at 10 µM [1] is reported as 9%, the inhibition of growth at 10 µM [2] is reported as 0% and the inhibition of growth at 10 µM [3] is reported as 1.3%. The inhibition of growth at 10 µM [4] was 1.6%, the inhibition of growth at 10 µM [5] was 24.9% and the inhibition of growth at 10 µM [6] was 16.5%. For the same compound, the inhibition of growth at 10 µM [7] was 26.2%, the inhibition of growth at 10 µM [8] was 4.9% and the inhibition of growth at 10 µM [9] was 6.6%. It also gave an inhibition of growth at 10 µM [10] of 3%, an inhibition of growth at 10 µM [11] of 16% and an inhibition of growth at 10 µM [12] of 13.3%. The inhibition of growth at 10 µM [13] was 24.2%, the inhibition of growth at 10 µM [14] was 0% and the inhibition of growth at 10 µM [15] was 0%. For the same compound, the inhibition of growth at 10 µM [16] was 25.1%, the inhibition of growth at 10 µM [17] was 7.6% and the inhibition of growth at 10 µM [18] was 7.2%. For the same compound, the inhibition of growth at 10 µM [19] was 14%, the inhibition of growth at 10 µM [20] was 6.8% and the inhibition of growth at 10 µM [21] was 8.5%. For the same compound, the inhibition of growth at 10 µM [22] was 31.4%, the inhibition of growth at 10 µM [23] was 8.4% and the inhibition of growth at 10 µM [24] was 18.3%. It also gave an inhibition of growth at 10 µM [25] of 16.9%, an inhibition of growth at 10 µM [26] of 14% and an inhibition of growth at 10 µM [27] of 6%. It also gave an inhibition of growth at 10 µM [28] of 35.5%, an inhibition of growth at 10 µM [29] of 0.9% and an inhibition of growth at 10 µM [30] of 6.7%. It also gave an inhibition of growth at 10 µM [31] of 7% and an inhibition of growth at 10 µM [32] of 17%.
With `O=C(c1cc2cc(F)ccc2[nH]1)N1c2ccccc2Sc2ccccc21` the inhibition of growth at 10 µM [1] was 33.6%, the inhibition of growth at 10 µM [2] was 23.8% and the inhibition of growth at 10 µM [3] was 19.1%. For the same compound, the inhibition of growth at 10 µM [4] was 0%, the inhibition of growth at 10 µM [5] was 4.2% and the inhibition of growth at 10 µM [6] was 1.3%. The inhibition [33] was 32%, the inhibition of growth at 10 µM [7] was 34.6% and the inhibition of growth at 10 µM [8] was 15.6%. The inhibition of growth at 10 µM [9] was 1.7%, the inhibition of growth at 10 µM [10] was 3.2% and the inhibition of growth at 10 µM [11] was 25.6%. It also gave an inhibition of growth at 10 µM [12] of 20.6%, an inhibition of growth at 10 µM [13] of 21.6% and an inhibition of growth at 10 µM [14] of 14.8%. It also gave an inhibition of growth at 10 µM [15] of 3.4%, an inhibition of growth at 10 µM [16] of 10.1% and an inhibition of growth at 10 µM [17] of 3.9%. The inhibition of growth at 10 µM [18] was 10.1%, the inhibition of growth at 10 µM [19] was 11.6% and the inhibition of growth at 10 µM [20] was 46.1%. For the same compound, the inhibition of growth at 10 µM [21] was 24.5%, the inhibition of growth at 10 µM [22] was 56.9% and the inhibition of growth at 10 µM [23] was 45.8%. For the same compound, the inhibition of growth at 10 µM [24] was 44.7%, the inhibition of growth at 10 µM [25] was 31.8% and the inhibition of growth at 10 µM [26] was 17.3%. For the same compound, the inhibition of growth at 10 µM [27] was 20.6%, the inhibition of growth at 10 µM [28] was 5.8% and the inhibition of growth at 10 µM [29] was 5.7%. For the same compound, the inhibition of growth at 10 µM [30] was 11.2%, the inhibition of growth at 10 µM [31] was 7.7% and the inhibition of growth at 10 µM [32] was 0%.
